Two compounds from ChEMBL document CHEMBL5518206, “Hit-to-Lead Identification and Validation of a Triaromatic Pleuromutilin Antibiotic Candidate” (J Med Chem, 2024) can be followed below.

The term IC50 denotes the midpoint of a concentration-inhibition curve. A word on the Tmax: it is the time at which the peak concentration occurs. The bioavailability is the share of a dose that reaches the circulation, judged against a reference dose that is usually intravenous. Higher therefore signals good availability. For orientation: Cmax means the highest concentration seen after dosing. What is called half-life is the time needed for the level to fall by half in the phase considered. High values mean slow decline, low ones rapid decline. By CL/F is commonly meant the apparent clearance, not corrected for the fraction that reaches the circulation. The Vd is the apparent volume that relates the amount in the body to the concentration in plasma or blood. Low values mean confinement near the circulation, high ones extensive tissue distribution. Broadly, the clearance is the volume of plasma or blood freed of the substance per unit of time.

Each structure is given as a SMILES string. Active and inactive are the calls of the source.

Data set [1] concerns the target ATP-dependent translocase ABCB1 (Homo sapiens, UniProt P08183). As to the kind of experiment: Inhibition of P-gp in human Caco-2 cells using digoxin as substrate. It counts as cell-based.
Data set [2] has as its target Voltage-gated inwardly rectifying potassium channel KCNH2 (Homo sapiens, UniProt Q12809). As to the kind of experiment: Inhibition of K+ ion channel activity of hERG. Type of data set: toxicity.
The subject of data set [3] is Staphylococcus epidermidis. As to the kind of experiment: Antibacterial activity against Staphylococcus epidermidis assessed as inhibition of visible growth incubated for 20 to 24 hrs by microbroth serial dilution assay. It counts as functional, organism-based. The settings on record: time 20-24 hrs. For orientation: Dilution methods test growth across graded concentrations, often in twofold steps.

The test system of data set [4] is Staphylococcus aureus. As to the kind of experiment: Antibacterial activity against multi drug-resistant Staphylococcus aureus USA300 FPR3757 assessed as reduction in bacterial growth at 1 times of MIC concentration measured after 24 hrs by time-kill assay. It counts as functional, organism-based.
The subject of data set [5] is Staphylococcus aureus. Kind of data set: Induction of resistant development in -(6-(6-(Piperazin-1-y1)-9H-purin-9-y)methyl)pyridin-3-y1)-1H-1,2,3-triazol-1-yl)-22-deoxypleuromutilin-16 passages resistance developed Staphylococcus aureus USA300 FPR3757 assessed as fold increase in MIC at sub-MIC concentration measured after 9 passages with conjugate by serial passage assay. Type of data set: functional.

The subject of data set [6] is Staphylococcus aureus. Kind of data set: Induction of resistant development in -(6-(6-(Piperazin-1-y1)-9H-purin-9-y)methyl)pyridin-3-y1)-1H-1,2,3-triazol-1-yl)-22-deoxypleuromutilin-16 passages resistance developed Staphylococcus aureus USA300 FPR3757 assessed as fold increase in MIC at sub-MIC concentration measured after 13 passages with conjugate by serial passage assay. Type of data set: functional.

The test system of data set [7] is Staphylococcus aureus. Kind of data set: Induction of resistant development in -(6-(6-(Piperazin-1-y1)-9H-purin-9-y)methyl)pyridin-3-y1)-1H-1,2,3-triazol-1-yl)-22-deoxypleuromutilin-16 passages resistance developed Staphylococcus aureus USA300 FPR3757 assessed as fold increase in MIC at sub-MIC concentration measured after 18 passages with conjugate by serial passage assay. It counts as functional.

The test system of data set [8] is Staphylococcus aureus. As to the kind of experiment: Induction of resistant development in -(6-(6-(Piperazin-1-y1)-9H-purin-9-y)methyl)pyridin-3-y1)-1H-1,2,3-triazol-1-yl)-22-deoxypleuromutilin-16 passages resistance developed Staphylococcus aureus USA300 FPR3757 assessed as fold increase in MIC at sub-MIC concentration measured after 25 passages with conjugate by serial passage assay. It counts as functional.

The subject of data set [9] is Staphylococcus aureus. As to the kind of experiment: Induction of resistant development in lefamulin 5 passages resistance developed Staphylococcus aureus USA300 FPR3757 assessed as fold increase in MIC at sub-MIC concentration measured after 9 passages with conjugate by serial passage assay. It counts as functional.
Data set [10] concerns Staphylococcus aureus. Kind of data set: Induction of resistant development in lefamulin 5 passages resistance developed Staphylococcus aureus USA300 FPR3757 assessed as fold increase in MIC at sub-MIC concentration measured after 18 passages with conjugate by serial passage assay. Type of data set: functional.
For data set [11], the system named is Staphylococcus aureus. As to the kind of experiment: Induction of resistant development in lefamulin 5 passages resistance developed Staphylococcus aureus USA300 FPR3757 assessed as fold increase in MIC at sub-MIC concentration measured after 22 passages with conjugate by serial passage assay. It counts as functional.
Data set [12] relates to Staphylococcus aureus. As to the kind of experiment: Induction of resistant development in lefamulin 5 passages resistance developed Staphylococcus aureus USA300 FPR3757 assessed as fold increase in MIC at sub-MIC concentration measured after 28 passages with conjugate by serial passage assay. It counts as functional.
For data set [13], the system named is Staphylococcus aureus. Kind of data set: Induction of resistant development in linezolid 5 passages resistance developed Staphylococcus aureus USA300 FPR3757 assessed as fold increase in MIC at sub-MIC concentration measured after 5 passages with conjugate by serial passage assay. Type of data set: functional.
Data set [14] concerns Staphylococcus aureus. As to the kind of experiment: Induction of resistant development in linezolid 5 passages resistance developed Staphylococcus aureus USA300 FPR3757 assessed as fold increase in MIC at sub-MIC concentration measured after 9 passages with conjugate by serial passage assay. Type of data set: functional.
Data set [15] has as its system Staphylococcus aureus. Kind of data set: Induction of resistant development in linezolid 5 passages resistance developed Staphylococcus aureus USA300 FPR3757 assessed as fold increase in MIC at sub-MIC concentration measured after 18 passages with conjugate by serial passage assay. It counts as functional.
Data set [16] relates to Staphylococcus aureus. Kind of data set: Induction of resistant development in linezolid 5 passages resistance developed Staphylococcus aureus USA300 FPR3757 assessed as fold increase in MIC at sub-MIC concentration measured after 25 passages with conjugate by serial passage assay. It counts as functional.
A short description of data set [17]: Tmax in NMRI female mouse at 20 mg/kg, sc by HPLC analysis. Type of data set: ADME, organism-based. As to conditions: in vivo.
Data set [18] in a line: AUC (0 to infinity) in NMRI female mouse at 20 mg/kg, sc by HPLC analysis. It counts as ADME, organism-based. As to conditions: in vivo.
A short description of data set [19]: Bioavailability in NMRI female mouse at 20 mg/kg, sc by HPLC analysis. It counts as ADME, organism-based. As to conditions: in vivo.
Data set [20] can be described thus: Cmax in NMRI female mouse at 60 mg/kg, sc by HPLC analysis. As to conditions: in vivo. It counts as ADME, organism-based.
A short description of data set [21]: Half life in NMRI female mouse at 60 mg/kg, sc by HPLC analysis. Type of data set: ADME, organism-based. The settings on record: in vivo.
The nature of data set [22]: Clearance in NMRI female mouse at 60 mg/kg, sc by HPLC analysis. As to conditions: in vivo. It counts as ADME, organism-based.
Data set [23] can be described thus: Bioavailability in NMRI female mouse at 60 mg/kg, sc by HPLC analysis. The settings on record: in vivo. It counts as ADME, organism-based.
A short description of data set [24]: Elimination rate constant in NMRI female mouse at 30 mg/kg, iv by HPLC analysis. As to conditions: in vivo. It counts as ADME, organism-based.
Data set [25] in a line: Volume of distribution in NMRI female mouse at 30 mg/kg, iv by HPLC analysis. Type of data set: ADME, organism-based. As to conditions: in vivo.
Data set [26] in a line: Tmax in NMRI female mouse at 30 mg/kg, po by HPLC analysis. As to conditions: in vivo. Type of data set: ADME, organism-based.
The nature of data set [27]: Bioavailability in NMRI female mouse at 30 mg/kg, po by HPLC analysis. Type of data set: ADME, organism-based. The settings on record: in vivo.
A short description of data set [28]: Half life in pig plasma at 3 mg/kg, iv measured upto 240 mins by LC-MS/MS analysis. Type of data set: ADME, organism-based, Sus scrofa.
Data set [29] is described as follows: Clearance in pig plasma at 3 mg/kg, iv measured upto 240 mins by LC-MS/MS analysis. Type of data set: ADME, organism-based, Sus scrofa.
A short description of data set [30]: Cmax in pig urine at 3 mg/kg, iv measured upto 240 mins by LC-MS/MS analysis. It counts as ADME, organism-based, Sus scrofa.
Data set [31] is described as follows: Tmax in pig urine at 3 mg/kg, iv measured upto 240 mins by LC-MS/MS analysis. It counts as ADME, organism-based, Sus scrofa.
The nature of data set [32]: AUC (0 to infinity) in pig urine at 3 mg/kg, iv measured upto 240 mins by LC-MS/MS analysis. It counts as ADME, organism-based, Sus scrofa. The settings on record: in vivo, 4 h.
The nature of data set [33]: Clearance in pig urine at 3 mg/kg, iv measured upto 240 mins by LC-MS/MS analysis. Type of data set: ADME, organism-based, Sus scrofa.
Data set [34] is described as follows: Tmax in pig plasma at 10 mg/kg, po measured upto 240 mins by LC-MS/MS analysis. It counts as ADME, organism-based, Sus scrofa.
Data set [35] is described as follows: Half life in pig plasma at 10 mg/kg, po measured upto 240 mins by LC-MS/MS analysis. It counts as ADME, organism-based, Sus scrofa.
Data set [36] can be described thus: Tmax in pig urine at 10 mg/kg, po measured upto 240 mins by LC-MS/MS analysis. Type of data set: ADME, organism-based, Sus scrofa.
Data set [37] is described as follows: Elimination rate constant in pig urine at 10 mg/kg, po measured upto 240 mins by LC-MS/MS analysis. Type of data set: ADME, organism-based, Sus scrofa.
Data set [38] in a line: Half life in pig urine at 10 mg/kg, po measured upto 240 mins by LC-MS/MS analysis. It counts as ADME, organism-based, Sus scrofa.

Sequence of Voltage-gated inwardly rectifying potassium channel KCNH2 (Q12809 whole entry): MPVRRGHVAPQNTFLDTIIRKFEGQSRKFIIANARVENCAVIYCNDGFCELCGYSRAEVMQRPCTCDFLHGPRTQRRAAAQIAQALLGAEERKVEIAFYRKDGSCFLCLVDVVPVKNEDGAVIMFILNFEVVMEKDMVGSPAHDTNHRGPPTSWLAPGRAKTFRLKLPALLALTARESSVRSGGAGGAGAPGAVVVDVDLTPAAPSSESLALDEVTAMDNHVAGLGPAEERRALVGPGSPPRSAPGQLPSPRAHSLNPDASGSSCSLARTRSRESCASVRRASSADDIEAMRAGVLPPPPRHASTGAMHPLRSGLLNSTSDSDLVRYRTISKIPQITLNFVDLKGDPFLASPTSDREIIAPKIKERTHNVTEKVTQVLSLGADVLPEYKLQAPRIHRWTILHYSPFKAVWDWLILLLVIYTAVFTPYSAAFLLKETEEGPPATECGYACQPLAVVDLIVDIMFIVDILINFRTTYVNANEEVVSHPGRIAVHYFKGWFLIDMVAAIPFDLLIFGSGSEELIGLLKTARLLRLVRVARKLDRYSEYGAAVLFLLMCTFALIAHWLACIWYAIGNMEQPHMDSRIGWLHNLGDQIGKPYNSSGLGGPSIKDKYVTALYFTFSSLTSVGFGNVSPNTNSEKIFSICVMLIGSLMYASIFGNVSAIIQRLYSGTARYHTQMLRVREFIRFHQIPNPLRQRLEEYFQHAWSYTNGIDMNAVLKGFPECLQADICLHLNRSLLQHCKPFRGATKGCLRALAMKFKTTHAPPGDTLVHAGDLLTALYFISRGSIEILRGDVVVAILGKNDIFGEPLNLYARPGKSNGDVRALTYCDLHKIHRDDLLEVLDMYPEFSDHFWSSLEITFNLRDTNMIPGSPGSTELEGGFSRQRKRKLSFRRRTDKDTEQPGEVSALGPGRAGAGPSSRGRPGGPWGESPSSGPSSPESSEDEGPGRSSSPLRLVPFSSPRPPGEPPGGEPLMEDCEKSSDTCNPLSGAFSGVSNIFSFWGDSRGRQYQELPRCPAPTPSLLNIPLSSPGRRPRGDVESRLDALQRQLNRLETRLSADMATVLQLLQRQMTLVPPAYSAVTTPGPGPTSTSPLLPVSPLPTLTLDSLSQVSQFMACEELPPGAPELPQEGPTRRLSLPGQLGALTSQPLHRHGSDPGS
Sequence of ATP-dependent translocase ABCB1 (P08183 whole entry): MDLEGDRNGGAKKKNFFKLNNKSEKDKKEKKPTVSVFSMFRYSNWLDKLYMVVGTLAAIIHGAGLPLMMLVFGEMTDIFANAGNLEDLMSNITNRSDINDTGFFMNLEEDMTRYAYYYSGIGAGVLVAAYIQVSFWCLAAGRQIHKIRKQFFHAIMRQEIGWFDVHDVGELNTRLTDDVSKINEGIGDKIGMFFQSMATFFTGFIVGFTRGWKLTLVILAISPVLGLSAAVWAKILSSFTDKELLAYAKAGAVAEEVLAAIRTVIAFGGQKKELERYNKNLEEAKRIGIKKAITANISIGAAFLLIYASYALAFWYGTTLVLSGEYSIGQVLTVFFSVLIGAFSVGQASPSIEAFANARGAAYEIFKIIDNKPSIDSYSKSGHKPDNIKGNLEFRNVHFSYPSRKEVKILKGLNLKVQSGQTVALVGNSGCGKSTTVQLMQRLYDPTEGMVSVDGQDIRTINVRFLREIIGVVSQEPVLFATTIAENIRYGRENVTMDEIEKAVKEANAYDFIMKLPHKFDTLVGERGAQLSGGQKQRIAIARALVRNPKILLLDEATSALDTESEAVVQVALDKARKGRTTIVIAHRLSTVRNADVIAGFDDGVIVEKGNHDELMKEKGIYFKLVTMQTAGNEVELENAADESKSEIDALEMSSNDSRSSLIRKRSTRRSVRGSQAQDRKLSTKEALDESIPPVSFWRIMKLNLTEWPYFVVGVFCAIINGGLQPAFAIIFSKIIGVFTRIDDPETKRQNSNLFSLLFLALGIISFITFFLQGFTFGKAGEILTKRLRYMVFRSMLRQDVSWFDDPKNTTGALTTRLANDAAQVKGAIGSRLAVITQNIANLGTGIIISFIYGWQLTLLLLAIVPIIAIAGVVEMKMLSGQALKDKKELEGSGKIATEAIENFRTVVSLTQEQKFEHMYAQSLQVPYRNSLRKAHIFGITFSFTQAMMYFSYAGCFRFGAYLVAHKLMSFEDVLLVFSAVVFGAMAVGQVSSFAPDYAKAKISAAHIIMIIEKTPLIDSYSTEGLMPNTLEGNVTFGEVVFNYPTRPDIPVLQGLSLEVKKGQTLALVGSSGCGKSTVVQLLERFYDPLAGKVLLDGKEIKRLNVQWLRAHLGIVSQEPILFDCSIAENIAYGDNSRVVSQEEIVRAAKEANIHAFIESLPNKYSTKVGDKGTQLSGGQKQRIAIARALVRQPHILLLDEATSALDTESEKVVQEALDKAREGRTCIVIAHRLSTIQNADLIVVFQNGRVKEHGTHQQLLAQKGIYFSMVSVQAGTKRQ

For the compound `C=C[C@]1(C)C[C@@H](OC(=O)CS[C@@H]2CC[C@@H](N)C[C@H]2O)[C@]2(C)[C@H](C)CC[C@]3(CCC(=O)[C@H]32)[C@@H](C)[C@@H]1O` [LEFAMULIN], the figures for the IC50 in [1] and in data set [2] were 34.1 µM and 78.2 µM, respectively. Moreover, the outcome in data set [3] and in data set [4] was inactive. Besides, the fold change (FC) in data set [5] came to 8; in [6] it was 16; in [7] it was 32; in [8], 64; in data set [9] it was 16; in data set [10], 32. For the same compound, the fold change (FC) in data set [11] came out at 32; in data set [12], 128; in data set [13], 4; in data set [14] it was 8; in data set [15] it was 16; in data set [16] it was 32.

With `C=C[C@]1(C)C[C@@H](OC(=O)Cn2cc(-c3ccc(Cn4cnc5c(N6CCNCC6)ncnc54)nc3)nn2)[C@]2(C)[C@H](C)CC[C@]3(CCC(=O)[C@H]32)[C@@H](C)[C@@H]1O`, the Tmax in [17] was 0.25 h; in [26], 0.25 h; in data set [31], 1 h; in data set [34] it was 0.25 h; in data set [36], 1 h. Moreover, the AUC in data set [18] was determined as 222 µg/mL/min; in [32], 821 µg/mL/min. Further, the bioavailability turned out to be 52% in [19], 33% in data set [23] and 0.3% in [27]. Also, the Cmax in data set [20] is 2560 ng/mL; in [30] it was 18700 ng/mL. In addition, the half-life in data set [21] is 1.9 h; in [28] it was 1.25 h; in [35], 0.37 h; in data set [38], 2.2 h. This compound gave a CL/F in data set [22] of 140 mL/min/kg. The k el in data set [24] is 0.000218 s⁻¹. This compound registered a Vd in data set [25] of 3.5 L/kg. In data set [29], this compound had a clearance of 84.7 mL/min/kg. The same compound had a CL renal at 4 h in data set [33] of 3.67 mL/min/kg. The same compound showed a k el at 4 h in data set [37] of 8.67e-05 s⁻¹.
